Test results published in patent publication US6894058B1, “Use of 3-hydroxy-3-methylgutaryl coenzym a reductase inhibitors for the manufacture of a medicament for the treatment of diabetic neuropathy” (AstraZeneca AB, priority 1999, dated 2005).

Columns and labels:
Diabetic rats [1] = assay: Sciatic nerve motor conduction velocity in streptozotocin-diabetic rats; assay type: in vivo, Sprague-Dawley rats; conditions: for Sciatic Nerve Motor Conduction Velocity: group mean ± SEM (number of rats in brackets); for nerve conduction velocity (NCV), effect in words: animal model of diabetic neuropathy
Method: Motor nerve conduction velocity was measured (as previously described by Cameron et al, Diabetologia, 1993, Vol. 36, pages 299-304) between sciatic notch and knee in the nerve branch to tibialis anterior muscle, which is representative of the whole sciatic nerve in terms of susceptibility to diabetes and treatment effects.

Diabetic rats [2] = assay: Saphenous nerve sensory conduction velocity in streptozotocin-diabetic rats; assay type: in vivo, Sprague-Dawley rats; conditions: for Saphenous Nerve Sensory Conduction Velocity: group mean ± SEM (number of rats in brackets)
Method: Sensory conduction velocity in saphenous nerve was measured between the groin and ankle (as previously described by Cameron et al. Quarterly Journal of Experimental Physiology, 1989, vol. 74, pages 917-926).

Diabetic rats [3] = assay: Sciatic nerve blood flow by hydrogen clearance microelectrode polarography in streptozotocin-diabetic rats; conditions: for Sciatic Nerve Blood Flow: group mean ± SEM (number of rats in brackets); for nerve blood flow, effect in words: animal model of diabetic neuropathy
[4] = Diabetic + 2 weeks of dosing at 20 mg/kg
[5] = Diabetic + 2 weeks of dosing at 50 mg/kg
[6] = Rattus norvegicus, Dose response, 5 groups of 8 rats, dose ranged from 0.3-20 mg/kg

| SMILES | Sciatic Nerve Motor Conduction Velocity (Diabetic rats [1]; [4]) | Sciatic Nerve Motor Conduction Velocity (Diabetic rats [1]; [5]) | nerve conduction velocity (NCV), effect in words (Diabetic rats [1]) | Saphenous Nerve Sensory Conduction Velocity (Diabetic rats [2]; [4]) | Saphenous Nerve Sensory Conduction Velocity (Diabetic rats [2]; [5]) | Sciatic Nerve Blood Flow (Diabetic rats [3]; [5]) | nerve blood flow, effect in words (Diabetic rats [3]) | ED50 (Diabetic rats [1]; [6]) | ED50 (Diabetic rats [2]; [6]) | Sciatic Nerve Blood Flow (Diabetic rats [3]; [4]) |
| --- | --- | --- | --- | --- | --- | --- | --- | --- | --- | --- |
| CC(C)c1c(C(=O)Nc2ccccc2)c(-c2ccccc2)c(-c2ccc(F)cc2)n1CC[C@@H](O)C[C@@H](O)CC(=O)O [Atorvastatin, atorvastatin] | 61.53 ± 0.76 (6) | 63.59 ± 0.69 (6) | improvement | 59.77 m/s ± 0.93 (6) | 60.72 m/s ± 0.94 (6) | 16.96 ± 1.39 ml/min/100 g (6) | improvement | – | – | – |
| CC(C)c1nc(N(C)S(C)(=O)=O)nc(-c2ccc(F)cc2)c1/C=C/[C@@H](O)C[C@@H](O)CC(=O)O [The AGENT, (E)-7-[4-(4-fluorophenyl)-6-isopropyl-2-[methyl(methylsulfonyl)amino]pyrimidin-5-yl](3R,5S)-3,5-dihydroxyhept-6-enoic acid] | 63.34 ± 0.61 (8) | – | improvement | 60.57 m/s ± 0.83 (8) | – | – | improvement | 2.3 mg/kg | 0.9 mg/kg | 16.19 ± 0.51 ml/min/100 g (8) |
